Source: patent publication US20240358692A1, “TREATMENT OF SCLERODERMA” (Aisa Pharma, Inc., priority 2023, published 2024)

Legend:
participants with SSc-RP [1] = assay: SHAQ - Visual Analog Scale - Raynaud's; format: in vivo, human; design: SHAQ Visual Analogue Scale - Raynaud's, In-Clinic Visit (Day 12), Mean / SHAQ Visual Analogue Scale - Raynaud's, In-Clinic Visit (Day 12), Median / SHAQ Visual Analogue Scale - Raynaud's: In-Clinic Visit (Day 12), Median: scale not given here; details: for % change VAS Raynauds: SHAQ, mITT Part A
Description: The SHAQ includes a Raynaud's VAS, which will be reported at screening and each in-clinic visit. The absolute change in Raynaud-VAS, assessed by the participants response to the SHAQ question ‘In the past 7 days, how much have your Raynaud's interfered with your daily activities?’ at baseline and the end of each dosing period will be calculated similar to frequency data as before.
The standard, validated, patient reported outcome measures tool for SSc patients, the SHAQ, was collected at the time points specified in the study schedules (FIG. 2 and FIGS. 4A and 4B) to assess the participant's quality of life. The SHAQ included a Raynaud's VAS that will also be reported separately.

participants with SSc-RP [2] = assay: Frequency of weekly symptomatic RP attacks (patient diary), Phase 2a Part A; format: in vivo, human; details: ITT Part A
Description: Percent change from baseline evaluation for frequency of weekly RP attacks were or will be used as the primary efficacy variable. The sponsor-developed participant-informed diary will be used to record data. Frequency of weekly RP attacks is defined as the total number of RP attacks divided by the number of days with available diary data within the last 7 days of each dosing period then multiplied by 7. Total number of RP attacks during the last 7 days of screening period divided by the number of days with available data then multiplied by 7 will be used as baseline for the analysis of all periods. The variable will be calculated as follows: […]
Percent change from baseline evaluation for frequency of weekly RP attacks was and will be the primary efficacy endpoint. Frequency of weekly RP attacks is defined as the total number of RP attacks divided by the number of days with available diary data within the last 7 days of each dosing period then multiplied by 7. Total number of RP attacks during the last 7 days of screening period divided by the number of days with available data then multiplied by 7 will be used as baseline for the analysis of all periods.

[3] = Any Cilnidipine (N = 17), Day 12, PP Population, Part A
[4] = Cilnidipine 20 mg (N = 4), Day 12, PP Population, Part A
[5] = Pooled Cilnidipine 10 mg and Cilnidipine 10 mg + Tadalafil 5 mg (N = 9), Day 12, PP Population, Part A
[6] = Pooled Cilnidipine 20 mg and Cilnidipine 20 mg + Tadalafil 5 mg (N = 7), Modified ITT Population - Part A
[7] = Pooled Cilnidipine (N = 8), Day 12, PP Population, Part A
[8] = cilnidipine 10 mg (combination: + tadalafil 5 mg)
[9] = cilnidipine 20 mg (combination: + tadalafil 5 mg)
[10] = Cilnidipine 10 mg, n=1, Excluding Outliers
[11] = Cilnidipine 10 mg, n=1, by Baseline RCS, first block (RCS <5.0)
[12] = Cilnidipine 20 mg, n=2, Excluding Outliers
[13] = Cilnidipine 20 mg, n=2, by Baseline RCS, first block (RCS <5.0)
[14] = Pooled Cilnidipine 10 mg and Cilnidipine 10 mg + Tadalafil 5 mg, n=1, by Baseline RCS, second block (RCS >5.0)

## COCCOC(=O)C1=C(C)NC(C)=C(C(=O)OC/C=C/c2ccccc2)C1c1cccc([N+](=O)[O-])c1 (centres unmarked) [Cilnidipine]
Participants with SSc-RP [1]; [3]
  SHAQ Visual Analogue Scale - Raynaud's, Change from Baseline, Mean (SD): −0.696 (1.3935)
  SHAQ Visual Analogue Scale - Raynaud's, Change from Baseline, Median: −0.300
  SHAQ Visual Analogue Scale - Raynaud's, In-Clinic Visit (Day 12), Mean (SD): 2.022 (1.8357)
  SHAQ Visual Analogue Scale - Raynaud's, In-Clinic Visit (Day 12), Median: 1.400
  SHAQ Visual Analogue Scale - Raynaud's, Percent Change from Baseline, Mean (SD): −20.44 (55.098) %
  SHAQ Visual Analogue Scale - Raynaud's, Percent Change from Baseline, Median: −33.33%
Participants with SSc-RP [1]; Cilnidipine 10 mg (N = 4), Day 12, PP Population, Part A
  SHAQ Visual Analogue Scale - Raynaud's, Change from Baseline, Median: 0.350
Participants with SSc-RP [1]; [4]
  SHAQ Visual Analogue Scale - Raynaud's, Change from Baseline, Mean: −1.200
  SHAQ Visual Analogue Scale - Raynaud's, In-Clinic Visit (Day 12), Median: 1.250
Participants with SSc-RP [1]; Cilnidipine 20 mg (n = 3)
  % change VAS Raynauds: −49%
Participants with SSc-RP [1]; Cilnidipine 20 mg, Day 12 vs Baseline, PP Population Part A, sensitivity analysis
  SHAQ Visual Analogue Scale - Raynaud's, Percent Change from Baseline, Median: −38.67%
Participants with SSc-RP [1]; [5]
  SHAQ Visual Analogue Scale - Raynaud's, Change from Baseline, Mean: −0.414
  SHAQ Visual Analogue Scale - Raynaud's, Change from Baseline, Median: −0.100
  SHAQ Visual Analogue Scale - Raynaud's, In-Clinic Visit (Day 12), Median: 2.600
  SHAQ Visual Analogue Scale - Raynaud's, Percent Change from Baseline, Mean: −9.97%
  SHAQ Visual Analogue Scale - Raynaud's, Percent Change from Baseline, Median: −4.39%
Participants with SSc-RP [1]; Pooled Cilnidipine 20 mg and Cilnidipine 20 mg + Tadalafil 5 mg (N = 7), Day 12, Modified ITT Population - Part A
  SHAQ Visual Analogue Scale - Raynaud's, Change from Baseline, Median: −0.300
Participants with SSc-RP [1]; [6]
  SHAQ Visual Analogue Scale - Raynaud's, In-Clinic Visit (Day 12), Mean: 1.300
  SHAQ Visual Analogue Scale - Raynaud's, In-Clinic Visit (Day 12), Median: 0.600
Participants with SSc-RP [1]; Pooled Cilnidipine 20 mg and Cilnidipine 20 mg + Tadalafil 5 mg (N = 8), Day 12, PP Population, Part A
  SHAQ Visual Analogue Scale - Raynaud's, In-Clinic Visit (Day 12), Median: 0.850
Participants with SSc-RP [1]; [7]
  SHAQ Visual Analogue Scale - Raynaud's, Change from Baseline, Mean (SD): −0.438 (1.2094)
  SHAQ Visual Analogue Scale - Raynaud's, In-Clinic Visit (Day 12), Mean: 1.900
  SHAQ Visual Analogue Scale - Raynaud's, In-Clinic Visit (Day 12), Mean (SD): 1.900 (1.6861)
  SHAQ Visual Analogue Scale - Raynaud's, Percent Change from Baseline, Mean (SD): −18.62 (75.571) %
Participants with SSc-RP [1]; Pooled Cilnidipine (n = 7)
  % change VAS Raynauds: −17%
Participants with SSc-RP [1]; Sensitivity Analysis (diagnosis of SSc), Modified ITT, Part A, Day 12, Any Cilnidipine (N = 14)
  SHAQ Visual Analogue Scale - Raynaud's: Change from Baseline, Median: −0.300
Participants with SSc-RP [1]; Sensitivity Analysis (diagnosis of SSc), Modified ITT, Part A, Day 12, Pooled Cilnidipine (N = 6)
  SHAQ Visual Analogue Scale - Raynaud's: Percent Change from Baseline, Mean: −18.64%
Participants with SSc-RP [1]; Sensitivity Analysis (diagnosis of SSc), Modified ITT, Part A, Day 12, arms Cilnidipine 10 mg, Tadalafil 5 mg, Cilnidipine 10 mg + Tadalafil 5 mg
  SHAQ Visual Analogue Scale - Raynaud's: In-Clinic Visit (Day 12), Median: 2.600
Participants with SSc-RP [1]; Sensitivity Analysis (diagnosis of SSc), Modified ITT, Part A, Day 12, arms Cilnidipine 20 mg, Cilnidipine 20 mg + Tadalafil 5 mg
  SHAQ Visual Analogue Scale - Raynaud's: In-Clinic Visit (Day 12), Median: 1.100
Participants with SSc-RP [1]; [8]
  VAS Raynaud's Change from Baseline Max: 1.50
  VAS Raynaud's Change from Baseline Median: 0.350
  VAS Raynaud's Change from Baseline Min: −0.90
  VAS Raynaud's Change from Baseline Q1: −0.500
  VAS Raynaud's Change from Baseline Q3: 1.150
  VAS Raynaud's Day 12 Max: 4.30
  VAS Raynaud's Day 12 Median: 1.700
  VAS Raynaud's Day 12 Min: 0.00
  VAS Raynaud's Day 12 Q1: 0.400
  VAS Raynaud's Day 12 Q3: 3.450
  VAS Raynaud's Percent Change from Baseline Max: 136.4%
  VAS Raynaud's Percent Change from Baseline Mean: 11.36%
  VAS Raynaud's Percent Change from Baseline Median: −2.27%
  VAS Raynaud's Percent Change from Baseline Min: −100.0%
  VAS Raynaud's Percent Change from Baseline Q1: −100.00%
Participants with SSc-RP [1]; [9]
  VAS Raynaud's Change from Baseline Max: −0.30
  VAS Raynaud's Change from Baseline Mean: −1.267
  VAS Raynaud's Change from Baseline Median: −1.100
  VAS Raynaud's Change from Baseline Min: −2.40
  VAS Raynaud's Change from Baseline Q1: −2.400
  VAS Raynaud's Change from Baseline Q3: −0.300
  VAS Raynaud's Day 12 Max: 1.40
  VAS Raynaud's Day 12 Median: 1.100
  VAS Raynaud's Day 12 Min: 0.60
  VAS Raynaud's Day 12 Q1: 0.600
  VAS Raynaud's Day 12 Q3: 1.400
  VAS Raynaud's Percent Change from Baseline Mean: −48.63%
  VAS Raynaud's Percent Change from Baseline Median: −44.00%
  VAS Raynaud's Percent Change from Baseline Min: −68.6%
  VAS Raynaud's Percent Change from Baseline Q1: −68.57%
  VAS Raynaud's Percent Change from Baseline Q3: −33.33%
Participants with SSc-RP [2]; Cilnidipine 10 mg, n=1
  Weekly Symptomatic RP Attacks Change from Baseline, Mean: −7.00
  Weekly Symptomatic RP Attacks Change from Baseline, Median: −7.00
  Weekly Symptomatic RP Attacks Percent Change from Baseline, Mean: −33.33%
  Weekly Symptomatic RP Attacks Percent Change from Baseline, Median: −33.33%
  Weekly Symptomatic RP Attacks, Mean: 14.00
  Weekly Symptomatic RP Attacks, Median: 14.00
Participants with SSc-RP [2]; [10]
  Weekly Symptomatic RP Attacks Change from Baseline, Mean: −7.00
  Weekly Symptomatic RP Attacks Change from Baseline, Median: −7.00
  Weekly Symptomatic RP Attacks Percent Change from Baseline, Mean: −33.33%
  Weekly Symptomatic RP Attacks Percent Change from Baseline, Median: −33.33%
  Weekly Symptomatic RP Attacks, Mean: 14.00
  Weekly Symptomatic RP Attacks, Median: 14.00
Participants with SSc-RP [2]; [11]
  Weekly Symptomatic RP Attacks Change from Baseline, Mean: −7.00
  Weekly Symptomatic RP Attacks Change from Baseline, Median: −7.00
  Weekly Symptomatic RP Attacks Percent Change from Baseline, Mean: −33.33%
  Weekly Symptomatic RP Attacks Percent Change from Baseline, Median: −33.33%
  Weekly Symptomatic RP Attacks, Mean: 14.00
  Weekly Symptomatic RP Attacks, Median: 14.00
Participants with SSc-RP [2]; Cilnidipine 20 mg, n=2
  Weekly Symptomatic RP Attacks Change from Baseline, Mean: −4.50
  Weekly Symptomatic RP Attacks Change from Baseline, Median: −4.50
  Weekly Symptomatic RP Attacks Percent Change from Baseline, Mean: −33.73%
  Weekly Symptomatic RP Attacks Percent Change from Baseline, Median: −33.73%
  Weekly Symptomatic RP Attacks, Mean: 8.00
  Weekly Symptomatic RP Attacks, Median: 8.00
Participants with SSc-RP [2]; [12]
  Weekly Symptomatic RP Attacks Change from Baseline, Mean: −4.50
  Weekly Symptomatic RP Attacks Change from Baseline, Median: −4.50
  Weekly Symptomatic RP Attacks Percent Change from Baseline, Median: −33.73%
  Weekly Symptomatic RP Attacks, Mean: 8.00
  Weekly Symptomatic RP Attacks, Median: 8.00
Participants with SSc-RP [2]; [13]
  Weekly Symptomatic RP Attacks Change from Baseline, Mean: −4.50
  Weekly Symptomatic RP Attacks Change from Baseline, Median: −4.50
  Weekly Symptomatic RP Attacks Percent Change from Baseline, Mean: −33.73%
  Weekly Symptomatic RP Attacks Percent Change from Baseline, Median: −33.73%
  Weekly Symptomatic RP Attacks, Mean: 8.00
  Weekly Symptomatic RP Attacks, Median: 8.00
Participants with SSc-RP [2]; [14]
  Weekly Symptomatic RP Attacks Change from Baseline, Mean: −3.00
  Weekly Symptomatic RP Attacks Change from Baseline, Median: −3.00
  Weekly Symptomatic RP Attacks Percent Change from Baseline, Mean: −42.86%
  Weekly Symptomatic RP Attacks Percent Change from Baseline, Median: −42.86%
  Weekly Symptomatic RP Attacks, Mean: 4.00
  Weekly Symptomatic RP Attacks, Median: 4.00
